In the supplement of paper PMC8566230:
± gives the standard deviation of the averaged measurements.

What was measured:
Experiment in all cases: cell viability with growth factor relative to same drug with BSA mock; higher = growth factor protects cells from drug (more viable cells)
Conditions in all cases: treatment time: 6 days
[1] = system: SK-N-BE
Procedure: (§1)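 Six neuroblastoma cell lines were treated with a kinase inhibitor or vincristine at a fixed dose (70–90% lethal) plus a growth factor (100 ng/ml) or 0.1% BSA mock for 72 h. Drugs and growth factors were then renewed for another 72 h (6 days total). Viability was read by XTT in triplicate and normalised to the same drug plus BSA (=100%).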

[2] = system: SK-N-SH
Procedure: as §1

[3] = system: Kelly
Procedure: as §1

[4] = system: LAN-1
Procedure: as §1

[5] = system: SH-SY5Y
Procedure: as §1

[6] = system: SK-N-AS
Procedure: as §1

CNC(=O)c1ccccc1Sc1ccc2c(/C=C/c3ccccn3)n[nH]c2c1 [axitinib]
cell viability with growth factor [%]
Conditions | added growth factor (100 ng/ml): BDNF | added growth factor (100 ng/ml): EPO | added growth factor (100 ng/ml): HGF | added growth factor (100 ng/ml): IGF-1 | added growth factor (100 ng/ml): NGF | added growth factor (100 ng/ml): SCF
[1], drug concentration: 5 uM | 103 ± 34 | 142 ± 8.8 | 100 ± 21 | 255 ± 41 | 122 ± 30 | 149 ± 32
[2], drug concentration: 10 uM | 109.9 ± 0.6 | 177 ± 27 | 96.8 ± 21 | 60 ± 5.2 | 118 ± 6.3 | 83.5 ± 19
[3], drug concentration: 10 uM | 143 ± 2 | 177 ± 19 | 94.1 ± 20 | 57.3 ± 21 | 148 ± 2.5 | 106 ± 12
[4], drug concentration: 5 uM | 112 ± 12 | 173 ± 13 | 93 ± 28 | 98.5 ± 17 | 159 ± 30 | 117 ± 8.8
[5], drug concentration: 2.5 uM | 104 ± 15 | 138 ± 23 | 95.7 ± 17 | 80.7 ± 16 | 137 ± 12 | 107 ± 2.2
[6], drug concentration: 5 uM | 95.7 ± 6.5 | 101 ± 7.1 | 85.5 ± 27 | 48.7 ± 2.5 | 96.1 ± 8 | 99 ± 6.2

COc1cc2nccc(Oc3ccc(NC(=O)C4(C(=O)Nc5ccc(F)cc5)CC4)cc3)c2cc1OC [cabozantinib]
cell viability with growth factor [%]
Conditions | added growth factor (100 ng/ml): BDNF | added growth factor (100 ng/ml): EPO | added growth factor (100 ng/ml): HGF | added growth factor (100 ng/ml): IGF-1 | added growth factor (100 ng/ml): NGF | added growth factor (100 ng/ml): SCF
[1], drug concentration: 7.5 uM | 278 ± 42 | 200 ± 25 | 248 ± 48 | 316 ± 30 | 191 ± 8.9 | 251 ± 44
[2], drug concentration: 5 uM | 153 ± 14 | 110.1 ± 0.79 | 94.5 ± 8.7 | 59.6 ± 6.7 | 153 ± 3.5 | 124 ± 13
[3], drug concentration: 5 uM | 109 ± 1.2 | 118 ± 3.6 | 84.5 ± 11 | 73 ± 30 | 133 ± 21 | 101 ± 8.5
[4], drug concentration: 5 uM | 125 ± 8.8 | 160 ± 35 | 168 ± 11 | 123 ± 11 | 161 ± 27 | 93.5 ± 13
[5], drug concentration: 2.5 uM | 114 ± 22 | 127 ± 21 | 151 ± 9.4 | 139 ± 33 | 183 ± 25 | 81.1 ± 16
[6], drug concentration: 7.5 uM | 124 ± 15 | 99 ± 3.2 | 108 ± 12 | 84.9 ± 18 | 95.9 ± 3.2 | 96.9 ± 10

C[C@@H](Oc1cc(-c2cnn(C3CCNCC3)c2)cnc1N)c1c(Cl)ccc(F)c1Cl [crizotinib]
cell viability with growth factor [%]
Conditions | added growth factor (100 ng/ml): BDNF | added growth factor (100 ng/ml): EPO | added growth factor (100 ng/ml): HGF | added growth factor (100 ng/ml): IGF-1 | added growth factor (100 ng/ml): NGF | added growth factor (100 ng/ml): SCF
[1], drug concentration: 5 uM | 422 ± 55 | 123 ± 85 | 88.9 ± 4.9 | 291 ± 44 | 173 ± 82 | 121 ± 22
[2], drug concentration: 1 uM | 122 ± 3.9 | 111 ± 5.7 | 82.7 ± 14 | 90.8 ± 22 | 210 ± 22 | 95.3 ± 19
[3], drug concentration: 1 uM | 352 ± 40 | 365 ± 77 | 112 ± 35 | 176 ± 5.4 | 300 ± 15 | 107 ± 25
[4], drug concentration: 2.5 uM | 232 ± 53 | 241 ± 35 | 227 ± 46 | 186 ± 23 | 359 ± 36 | 142 ± 20
[5], drug concentration: 2.5 uM | 118 ± 23 | 137 ± 13 | 174 ± 30 | 101 ± 24 | 184 ± 51 | 120 ± 11
[6], drug concentration: 5 uM | 103 ± 4.9 | 89.6 ± 9.9 | 106 ± 51 | 130 ± 2.1 | 73.9 ± 16 | 106 ± 19

Cc1nc(Nc2ncc(C(=O)Nc3c(C)cccc3Cl)s2)cc(N2CCN(CCO)CC2)n1 [dasatinib]
cell viability with growth factor [%]
Conditions | added growth factor (100 ng/ml): BDNF | added growth factor (100 ng/ml): EPO | added growth factor (100 ng/ml): HGF | added growth factor (100 ng/ml): IGF-1 | added growth factor (100 ng/ml): NGF | added growth factor (100 ng/ml): SCF
[1], drug concentration: 500 nM | 90.9 ± 20 | 130 ± 5.7 | 111 ± 27 | 185 ± 19 | 83.6 ± 3.1 | 146 ± 12
[2], drug concentration: 500 nM | 99.7 ± 1 | 126 ± 5.9 | 151 ± 4.3 | 205 ± 33 | 116 ± 15 | 113 ± 22
[3], drug concentration: 500 nM | 86.8 ± 2.7 | 238 ± 40 | 198 ± 9.8 | 292 ± 36 | 164 ± 34 | 95.8 ± 9.8
[4], drug concentration: 5 nM | 93.1 ± 4.4 | 228 ± 30 | 129 ± 14 | 138 ± 19 | 273 ± 23 | 97.6 ± 14
[5], drug concentration: 25 nM | 131 ± 13 | 320 ± 21 | 97 ± 28 | 135 ± 13 | 217 ± 38 | 169 ± 6.2
[6], drug concentration: 50 nM | 117 ± 16 | 108 ± 8.2 | 134 ± 14 | 235 ± 27 | 104 ± 7.1 | 82.7 ± 13

Cc1ccc(NC(=O)c2ccc(CN3CCN(C)CC3)cc2)cc1Nc1nccc(-c2cccnc2)n1 [imatinib]
cell viability with growth factor [%]
Conditions | added growth factor (100 ng/ml): BDNF | added growth factor (100 ng/ml): EPO | added growth factor (100 ng/ml): HGF | added growth factor (100 ng/ml): IGF-1 | added growth factor (100 ng/ml): NGF | added growth factor (100 ng/ml): SCF
[1], drug concentration: 25 uM | 103 ± 11 | 217 ± 32 | 103 ± 17 | 124 ± 5.7 | 179 ± 16 | 76.9 ± 2.5
[2], drug concentration: 25 uM | 106 ± 16 | 121 ± 10 | 143 ± 32 | 110 ± 36 | 110 ± 15 | 98.2 ± 18
[3], drug concentration: 25 uM | 165 ± 36 | 184 ± 21 | 167 ± 46 | 145 ± 15 | 125 ± 3.2 | 134 ± 11
[4], drug concentration: 20 uM | 101 ± 4.4 | 121 ± 7.4 | 86.4 ± 27 | 117 ± 5.8 | 135 ± 18 | 99.4 ± 9.5
[5], drug concentration: 25 uM | 94.8 ± 19 | 166 ± 25 | 106 ± 12 | 99.5 ± 3.6 | 207 ± 39 | 111 ± 7.6
[6], drug concentration: 20 uM | 104 ± 18 | 103 ± 22 | 123 ± 46 | 134 ± 24 | 111 ± 5.8 | 112 ± 19

CC[C@]1(O)C[C@H]2CN(CCc3c([nH]c4ccccc34)[C@@](C(=O)OC)(c3cc4c(cc3OC)N(C=O)[C@H]3[C@@](O)(C(=O)OC)[C@H](OC(C)=O)[C@]5(CC)C=CCN6CC[C@]43[C@@H]65)C2)C1 [vincristine]
cell viability with growth factor [%]
Conditions | added growth factor (100 ng/ml): BDNF | added growth factor (100 ng/ml): EPO | added growth factor (100 ng/ml): HGF | added growth factor (100 ng/ml): IGF-1 | added growth factor (100 ng/ml): NGF | added growth factor (100 ng/ml): SCF
[1], drug concentration: 20 nM | 98 ± 21 | 171 ± 42 | 97.5 ± 6 | 116 ± 24 | 137 ± 5.2 | 128 ± 12
[2], drug concentration: 5 nM | 98 ± 4.7 | 152 ± 6.7 | 97.7 ± 12 | 142 ± 9.5 | 129 ± 13 | 88.1 ± 8.1
[3], drug concentration: 5 nM | 86.8 ± 27 | 89.5 ± 19 | 95.4 ± 11 | 200 ± 22 | 70.2 ± 8 | 99.2 ± 12
[4], drug concentration: 5 nM | 84.5 ± 2.9 | 151 ± 11 | 116 ± 17 | 99.3 ± 29 | 92.4 ± 13 | 116 ± 28
[5], drug concentration: 25 nM | 110 ± 12 | 149 ± 18 | 108 ± 23 | 110 ± 20 | 208 ± 19 | 97.4 ± 16
[6], drug concentration: 5 nM | 95 ± 8.7 | 78.5 ± 19 | 124 ± 7.1 | 219 ± 6.4 | 88.2 ± 6.7 | 97.3 ± 13
